From PMC9608620, “Synthesis and Identification of New N,N-Disubstituted Thiourea, and Thiazolidinone Scaffolds Based on Quinolone Moiety as Urease Inhibitor” (Molecules, 2022)
In brackets after ≈: the same amount, converted by molar mass. Like-named read-outs stand apart in the source and are kept apart here.

How the values were obtained:
[1] = test system: Proteus mirabilis (P. mirabilis) strain; assay: Antibacterial screening, cup-plate diffusion method; assay type: cell-based; details: urease-positive clinical isolate from urine, number in brackets, read-out: MIC P. mirabilis (given in brackets)
Description: The Proteus mirabilis (P. mirabilis) strain was isolated from the urine of patients suffering from urinary tract infections. […] The test was performed using the cup-plate diffusion method

[2] = target: T1, urease (Jack bean urease) (Canavalia ensiformis, UniProt P07374); assay: biochemical; assay type: biochemical
Description: In vitro screening and inhibitory studies on urease (Jack bean urease) were determined using the colored Berthelot phenols method, which measures the liberation of ammonia from the reaction. Briefly, the assay mixture containing 1 unit of the enzyme was added to 650 µL of buffer solution (50 mmol phosphate buffer Ph 6.7, 400 mmol sodium salicylate, 10 mmol sodium nitroprusside, and 2 mmol EDTA/L) and mixed with 10 µL of different concentration 0.1–100 Mm of the tested compounds in DMF as a solvent. […] After 15 min incubation at room temperature, 10 µL of 50 mg/L urea solution was added. The mixture was incubated for 0.5 h in a water bath at 37 °C to allow the hydrolysis process.
After complete urea hydrolysis and ammonia liberation, the reaction was stopped by adding 200 µL of the hypochlorite reagent (150 mmol/L sodium hydroxide, 140 mm/L sodium hypochlorite). The liberated ammonia was allowed to complex with the hypochlorite and salicylate for 25 min at 30 °C. The absorbance was measured at 578 nm using a UV/VIS Spectrophotometer (Optizen POP, 5U4608, Daejeon, Korea), and experiments were performed in triplicate in a final volume of 1 mL. […] The percentage inhibition was calculated as the difference of absorbance values with and without the test compounds. The concentration that provokes an inhibition halfway between the minimum and maximum response of each compound (relative IC50) was determined by monitoring the inhibition effect of various concentrations of compounds in the assay.

[3] = target: T1, urease (Jack bean urease); details: read-out: IC50 (µM) Urease; lead compound of the design rationale; cited from earlier work
[4] = Jack bean urease, triplicate, relative IC50, read-out: IC50 (µM) Urease

T1 sequence (P07374 whole entry, looked up): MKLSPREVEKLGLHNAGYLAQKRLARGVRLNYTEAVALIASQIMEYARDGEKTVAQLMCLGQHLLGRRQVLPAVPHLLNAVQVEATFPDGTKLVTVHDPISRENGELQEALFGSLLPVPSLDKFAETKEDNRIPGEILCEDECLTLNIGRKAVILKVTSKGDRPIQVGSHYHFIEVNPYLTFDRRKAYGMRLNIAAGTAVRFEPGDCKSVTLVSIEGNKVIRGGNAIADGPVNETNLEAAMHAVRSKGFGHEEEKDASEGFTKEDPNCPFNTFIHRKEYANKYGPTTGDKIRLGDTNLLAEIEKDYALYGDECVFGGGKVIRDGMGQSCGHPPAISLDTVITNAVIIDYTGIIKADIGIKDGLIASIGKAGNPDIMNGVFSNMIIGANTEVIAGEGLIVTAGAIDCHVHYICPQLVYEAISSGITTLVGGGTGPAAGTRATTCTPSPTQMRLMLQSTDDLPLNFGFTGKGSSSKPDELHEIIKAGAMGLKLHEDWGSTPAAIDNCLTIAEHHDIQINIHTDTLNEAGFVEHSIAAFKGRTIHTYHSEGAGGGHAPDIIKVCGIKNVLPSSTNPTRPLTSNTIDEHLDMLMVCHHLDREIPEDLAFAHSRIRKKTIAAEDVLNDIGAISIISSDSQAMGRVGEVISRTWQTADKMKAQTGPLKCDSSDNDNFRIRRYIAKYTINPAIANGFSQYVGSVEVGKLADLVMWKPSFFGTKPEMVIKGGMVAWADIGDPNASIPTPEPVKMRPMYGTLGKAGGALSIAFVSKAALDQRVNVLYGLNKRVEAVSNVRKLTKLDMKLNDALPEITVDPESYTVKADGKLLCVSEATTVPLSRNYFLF

| SMILES | melting point | MIC [1] | IC50 [2] | fold more potent than thiourea and acetohydroxamic acid (urease inhibition) ([2]; relative to the reference inhibitors) | IC50 [3] | IC50 [2, 4] |
| --- | --- | --- | --- | --- | --- | --- |
| Cn1c(=O)cc(OCC(=O)NNC(=S)NCc2ccccc2)c2ccccc21 [Compound 5b, N-Benzyl-2-(2-((1-methyl-2-oxo-1,2-dihydroquinolin-4-yl)oxy)acetyl)hydrazinecarbothioamide] | 190 to 192 °C | 100 µg/mL (≈ 252 µM) | 2.58 ± 0.1 µM | – | – | – |
| Cn1c(=O)cc(OCC(=O)NNC(=S)Nc2ccccc2)c2ccccc21 [Compound 5c, 2-(2-((1-Methyl-2-oxo-1,2-dihydroquinolin-4-yl)oxy)acetyl)-N-phenylhydrazinecarbothioamide] | 161 to 163 °C | 100 µg/mL (≈ 261 µM) | 1.83 ± 0.79 µM | approximately 12 fold | – | – |
| CCNC(=S)NNC(=O)Cn1c(Cc2ccc(F)cc2)nc2ccccc2c1=O [lead I, N-ethyl-2-(2-(2-(4-fluorobenzyl)-4-oxoquinazolin-3(4H)-yl)acetyl)hydrazinecarbothioamide] | – | – | – | – | 6.02 ± 0.27 µM | – |
| Cc1ccc2[nH]c(=O)cc(OCC(=O)NNC(=S)NCc3ccccc3)c2c1 [Compound 5e, N-Benzyl-2-(2-((6-methyl-2-oxo-1,2-dihydroquinolin-4-yl)oxy)acetyl)hydrazinecarbothioamide] | 183 to 185 °C | 100 µg/mL (≈ 252 µM) | 5.6 ± 0.84 µM | – | – | – |
| C=CCN1C(=O)/C(=C\C(=O)OC)SC1=NNC(=O)COc1cc(=O)[nH]c2ccccc12 [Compound 7j, (2E)-Methyl 2-(3-allyl-4-oxo-2-(2-(2-((2-oxo-1,2-dihydroquinolin-4-yl)oxy)acetyl)-hydrazono)thiazolidin-5-ylidene)acetate] | 244 to 246 °C | 200 µg/mL (≈ 452 µM) | 51.4 ± 0.91 µM | – | – | – |
| C=CCN1C(=O)/C(=C\C(=O)OC)S/C1=N\NC(=O)COc1cc(=O)[nH]c2ccc(C)cc12 [Compound 7f, (E)-Methyl 2-((Z)-3-allyl-2-(2-(2-((6-methyl-2-oxo-1,2-dihydroquinolin-4-yl)oxy)-acetyl)hydrazono)-4-oxothiazolidin-5-ylidene)acetate] | 232 to 233 °C | 200 µg/mL (≈ 438 µM) | 31.58 ± 0.15 µM | – | – | – |
| C=CCN1C(=O)/C(=C\C(=O)OC)SC1=NNC(=O)COc1cc(=O)n(C)c2ccccc12 [Compound 7a, (2E)-Methyl 2-(3-allyl-2-(2-(2-((1-methyl-2-oxo-1,2-dihydroquinolin-4-yl)oxy)acetyl)-hydrazono)-4-oxothiazolidin-5-ylidene)acetate] | 233 to 235 °C | 200 µg/mL (≈ 438 µM) | 36.28 ± 0.1 µM | – | – | – |
| CC(=O)NO [Acetohydroxamic acid, reference compound] | – | – | – | – | – | 21 ± 0.94 µM |
| COC(=O)/C=C1/SC(=NNC(=O)COc2cc(=O)[nH]c3ccc(C)cc23)N(Cc2ccccc2)C1=O [Compound 7g, (2E)-Methyl 2-(3-benzyl-2-(2-(2-((6-methyl-2-oxo-1,2-dihydroquinolin-4-yl)oxy)acetyl)-hydrazono)-4-oxothiazolidin-5-ylidene)acetate] | 241 to 243 °C | 200 µg/mL (≈ 395 µM) | 45.43 ± 0.19 µM | – | – | – |
| C=CCNC(=S)NNC(=O)COc1cc(=O)[nH]c2ccc(C)cc12 [Compound 5d, N-Allyl-2-(2-((6-methyl-2-oxo-1,2-dihydroquinolin-4-yl)oxy)acetyl)hydrazine-1-carbothioamide] | 174 to 176 °C | 100 µg/mL (≈ 289 µM) | 5.29 ± 0.36 µM | – | – | – |
| CCOC(=O)/C=C1/S/C(=N\NC(=O)COc2cc(=O)n(C)c3ccccc23)N(Cc2ccccc2)C1=O [Compound 7b] | 243 to 245 °C | 200 µg/mL (≈ 384 µM) | 24 ± 0.88 µM | – | – | – |
| CCOC(=O)/C=C1/SC(=NNC(=O)COc2cc(=O)n(C)c3ccccc23)N(c2ccccc2)C1=O [Compound 7d, (2E)-Ethyl 2-(2-(2-(2-((1-methyl-2-oxo-1,2-dihydroquinolin-4-yl)oxy)acetyl)-hydrazono)-4-oxo-3-phenylthiazolidin-5-ylidene)acetate] | 223 to 225 °C | 200 µg/mL (≈ 395 µM) | 26.8 ± 1.11 µM | – | – | – |
| C=CCNC(=S)NNC(=O)COc1cc(=O)n(C)c2ccccc12 [Compound 5a, N-Allyl-2-(2-((1-methyl-2-oxo-1,2-dihydroquinolin-4-yl)oxy)acetyl)hydrazinecarbo-thioamide] | 177 to 179 °C | 100 µg/mL (≈ 289 µM) | 2.48 ± 0.18 µM | – | – | – |
| CCOC(=O)/C=C1/S/C(=N\NC(=O)COc2cc(=O)[nH]c3ccc(C)cc23)N(Cc2ccccc2)C1=O [Compound 7h, (E)-Ethyl 2-((Z)-3-benzyl-2-(2-(2-((6-methyl-2-oxo-1,2-dihydroquinolin-4-yl)oxy)acetyl)-hydrazono)-4-oxothiazolidin-5-ylidene)acetate] | 233 to 235 °C | 200 µg/mL (≈ 384 µM) | 31.3 ± 0.36 µM | – | – | – |
| C=CCNC(=S)NNC(=O)COc1cc(=O)[nH]c2ccccc12 [Compound 5f, N-Allyl-2-(2-((2-oxo-1,2-dihydroquinolin-4-yl)oxy)acetyl)hydrazinecarbothioamide] | 169 to 171 °C | 100 µg/mL (≈ 301 µM) | 9.45 ± 0.08 µM | – | – | – |
| C=CCN1C(=O)/C(=C\C(=O)OCC)S/C1=N\NC(=O)COc1cc(=O)[nH]c2ccc(C)cc12 [Compound 7e, (E)-Ethyl 2-((Z)-3-allyl-2-(2-(2-((6-methyl-2-oxo-1,2-dihydroquinolin-4-yl)oxy)acetyl)-hydrazono)-4-oxothiazolidin-5-ylidene)acetate] | 239 to 241 °C | 200 µg/mL (≈ 425 µM) | 29.8 ± 1.31 µM | – | – | – |
| O=C(COc1cc(=O)[nH]c2ccccc12)NNC(=S)NCc1ccccc1 [Compound 5g, N-Benzyl-2-(2-((2-oxo-1,2-dihydroquinolin-4-yl)oxy)acetyl)hydrazinecarbothioamide] | 199 to 201 °C | 100 µg/mL (≈ 261 µM) | 11.2 ± 0.27 µM | – | – | – |
| COC(=O)/C=C1/SC(=NNC(=O)COc2cc(=O)n(C)c3ccccc23)N(c2ccccc2)C1=O [Compound 7c, (2E)-Methyl 2-(2-(2-(2-((1-methyl-2-oxo-1,2-dihydroquinolin-4-yl)oxy)acetyl)-hydrazono)-4-oxo-3-phenylthiazolidin-5-ylidene)acetate] | 229 to 231 °C | 200 µg/mL (≈ 406 µM) | 18.8 ± 1.72 µM | – | – | – |
| CCOC(=O)/C=C1/S/C(=N\NC(=O)COc2cc(=O)[nH]c3ccccc23)N(Cc2ccccc2)C1=O [Compound 7l, (E)-Ethyl 2-((Z)-3-benzyl-4-oxo-2-(2-(2-((2-oxo-1,2-dihydroquinolin-4-yl)oxy)acetyl)-hydrazono)thiazolidin-5-ylidene)acetate] | 249 to 251 °C | 200 µg/mL (≈ 395 µM) | 37.21 ± 0.28 µM | – | – | – |
| C=CCN1C(=O)/C(=C\C(=O)OCC)S/C1=N\NC(=O)COc1cc(=O)[nH]c2ccccc12 [Compound 7i, (2E)-Ethyl 2-(3-allyl-4-oxo-2-(2-(2-((2-oxo-1,2-dihydroquinolin-4-yl)oxy)acetyl)hydra-zono)thiazolidin-5-ylidene)acetate] | – | 200 µg/mL (≈ 438 µM) | 42.8 ± 1.51 µM | – | – | – |
| COC(=O)/C=C1/SC(=NNC(=O)COc2cc(=O)[nH]c3ccccc23)N(Cc2ccccc2)C1=O [Compound 7k, (2E)-Methyl 2-(3-benzyl-4-oxo-2-(2-(2-((2-oxo-1,2-dihydroquinolin-4-yl)oxy)acetyl)-hydrazono)thiazolidin-5-ylidene)acetate] | 251 to 253 °C | 200 µg/mL (≈ 406 µM) | 49.45 ± 0.09 µM | – | – | – |
| NC(N)=S [Thiourea] | – | – | – | – | – | 22.8 ± 1.31 µM |
